PMC12053792 (Journal of Peptide Science, 2025)
“Also recorded” adds a separate entry of the source.

Columns and labels:
IFNγ‐secreting T‐cells = assay: In vivo immunisation, IFNγ ELISpot on splenocytes, HHDII/DR1 mice; parameters: species or system HHDII/DR1 (HLA‐A2 transgenic) mice
Procedure: (§1) Animal experiments were carried out with ethical approval from University of Nottingham ethical review board and under a Home Office approved project license (PP2706800). Mice were dosed with 10 nmol of material in 50 μL at Days 1, 8 and 15 (n = 3). IFNϒ ELISpot assays on splenocytes were conducted on termination at Day 21. General methods for the ELISpot can be found in the Supporting Information. Preparation of media and buffers and steps performed on Days 1 and 2 post‐termination; the ELISpot assays were performed using a laminar flow cabinet and aseptic techniques to ensure the sterility of media, reagents and plates at stages before development of the ELISpot. Development of the ELISpot on Day 4 posttermination was performed on the laboratory bench.
(§2) In Vivo Evaluation (ELISpot Assay)
Animal experiments were carried out with ethical approval from University of Nottingham ethical review boards and under a Home Office approved project license (PP2706800). HLA-HHDII/DR1 (HLA-A2.1+/+ HLADR1+/+, Pasteur Institute) transgenic mice knocked out for murine MHC-I and II and expressing chimeric HLA-A2 (HHDII) and human HLA-DR1 or Balb/c mice (Charles River) aged 6-12 weeks were used. Mice were vaccinated with 10 ηmol of each immunogen at each timepoint. Doses were delivered subcutaneously (s.c.) in 50 µl volume on days 1, 8 and 15. No anaesthesia was used for injections. Responses were screened on day 21 after euthanasia by cervical dislocation. Preparation of media and buffers and steps performed on days 1 and 2 of the ELISpot assay were performed using a laminar flow cabinet and aseptic techniques to ensure the sterility of media, reagents and plates at stages before development of the ELISpot. Development of the ELISpot on day 4 can be performed on the […]
The following tables summarise the details of the vaccine candidates and vaccination procedure including (dose time points):
Table S5. Summary of the injection schedule (including dose concentration and number) for Pam2Cys-SK4-NY-ESO-1157-165 (2) candidate using HHDII/DR1 Tg mice. […]

HHDII/DR1 mice = assay: In vivo toxicity in HHDII/DR1 mice; parameters: species or system HHDII/DR1 (HLA‐A2 transgenic) mice; settings: 10 nmol in 50 μL s.c., days 1, 8 and 15, n = 3
Procedure: as §1, §2
Animal experiments were carried out with ethical approval from University of Nottingham ethical review boards and under a Home Office approved project license (PP2706800). HLA-HHDII/DR1 (HLA-A2.1+/+ HLADR1+/+, Pasteur Institute) transgenic mice knocked out for murine MHC-I and II and expressing chimeric HLA-A2 (HHDII) and human HLA-DR1 or Balb/c mice (Charles River) aged 6-12 weeks were used. Mice were vaccinated with 10 ηmol of each immunogen at each timepoint. Doses were delivered subcutaneously (s.c.) in 50 µl volume on days 1, 8 and 15. No anaesthesia was used for injections. […]

3: vaccine‐adjuvant construct Pam2Cys‐SK4‐NY‐ESO‐1_157‐165 [compound 3]
Immune response (in words) (IFNγ‐secreting T‐cells; healthy HLA‐A2 transgenic (HHDII/DR1) mice, 10 nmol in 50 μL s.c., days 1, 8, 15, n = 3, day 21, versus media‐only negative control): specific but weak responses; also recorded: weakly immunogenic; also recorded: shows activity as a self‐adjuvanting vaccine candidate | ANOVA significance (in words) (IFNγ‐secreting T‐cells; restimulated with NY‐ESO‐1_87‐111 and NY‐ESO‐1_119‐143): not significant | ANOVA significance (in words) (IFNγ‐secreting T‐cells; restimulated with NY‐ESO‐1_157‐165): significant effect | In vivo toxicity outcome (HHDII/DR1 mice): non‐toxic
